A value given as a limit tells only on which side of the number the result lay.

The target in one test is T1, JAK3 (Homo sapiens, UniProt P52333).
T1 sequence (P52333 1-1124): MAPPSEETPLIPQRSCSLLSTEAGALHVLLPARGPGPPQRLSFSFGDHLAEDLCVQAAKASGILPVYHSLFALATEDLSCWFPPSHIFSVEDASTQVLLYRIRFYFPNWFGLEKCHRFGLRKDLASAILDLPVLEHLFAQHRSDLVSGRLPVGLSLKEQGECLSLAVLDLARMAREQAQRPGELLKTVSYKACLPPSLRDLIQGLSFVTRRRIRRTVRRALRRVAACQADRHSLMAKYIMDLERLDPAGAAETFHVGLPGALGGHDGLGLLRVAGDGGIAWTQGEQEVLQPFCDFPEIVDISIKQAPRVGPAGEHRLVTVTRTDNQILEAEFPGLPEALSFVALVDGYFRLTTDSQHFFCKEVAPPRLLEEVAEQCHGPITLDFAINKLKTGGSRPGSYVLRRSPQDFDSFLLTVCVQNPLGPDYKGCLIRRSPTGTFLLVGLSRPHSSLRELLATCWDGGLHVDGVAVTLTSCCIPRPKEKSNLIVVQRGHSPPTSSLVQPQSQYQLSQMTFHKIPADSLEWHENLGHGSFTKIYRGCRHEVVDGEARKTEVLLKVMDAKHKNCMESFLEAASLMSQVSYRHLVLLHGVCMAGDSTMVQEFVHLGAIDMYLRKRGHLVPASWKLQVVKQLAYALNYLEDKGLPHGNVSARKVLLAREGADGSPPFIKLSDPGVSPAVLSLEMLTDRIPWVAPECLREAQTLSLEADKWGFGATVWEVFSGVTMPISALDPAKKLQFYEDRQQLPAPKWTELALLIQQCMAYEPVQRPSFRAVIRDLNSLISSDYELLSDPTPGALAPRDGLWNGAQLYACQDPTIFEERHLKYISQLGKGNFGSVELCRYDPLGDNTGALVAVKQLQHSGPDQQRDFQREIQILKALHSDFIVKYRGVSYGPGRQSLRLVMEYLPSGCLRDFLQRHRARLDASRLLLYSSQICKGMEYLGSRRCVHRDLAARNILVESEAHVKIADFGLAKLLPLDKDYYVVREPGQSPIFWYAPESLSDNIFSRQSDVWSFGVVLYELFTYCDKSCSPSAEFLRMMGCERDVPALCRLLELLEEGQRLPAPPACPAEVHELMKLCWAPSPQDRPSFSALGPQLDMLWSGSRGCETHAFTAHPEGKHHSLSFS
The test can be described thus: Omnia assay for potency against JAK3. It counts as biochemical. The conditions noted are these: read-out: JAK3 Inhibition. In a few lines: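 Continuous-read Omnia kinase assay with 5 nM JAK3, 5 μM ATP (near apparent Km) and 5 μM Y12-Sox peptide in Tris pH 7.5/MgCl2 buffer; enzyme pre-incubated with compound 30 min at 27 °C. Fluorescence (ex360/em485) read over 60 min; initial velocities fitted against inhibitor concentration to give IC50.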

The next test concerns the target T2, EGFR (T790M/L858R) (Homo sapiens, UniProt P00533, L858R/T790M).
T2 construct: purchased BPS Bioscience 40350
The test can be described thus: Omnia continuous-read kinase assay, EGFR (T790M/L858R). The settings on record: read-out: EGFR (T790M/L858R) inhibiton. It is filed as biochemical. An excerpt:
(§1) The protocol below describes continuous-read kinase assays to measure inherent potency of compounds against active forms of EGFR (WT) and EGFR (T790M/L858R) enzymes. The mechanics of the assay platform are best described by the vendor (Invitrogen, Carlsbad, Calif.) on their website at the following URL: http://www.invitrogen.com/content.cfm?pageid=11338 or http://www.invitrogen.com/site/us/en/home/Products-and-Services/Applications/Drug-Discovery/Target-and-Lead-Identification-and-Validation/KinaseBiology/KB-Misc/Biochemical-Assays/Omnia-Kinase-Assays.html.
(§2) Briefly, 10× stocks of EGFR-WT (PV3872) from Invitrogen and EGFR-T790M/L858R (40350) from BPS Bioscience, San Diego, Calif., 1.13×ATP (AS001A) and appropriate Tyr-Sox conjugated peptide substrates (KCZI001) were prepared in 1× kinase reaction buffer consisting of 20 mM Tris, pH 7.5, 5 mM MgCl2, 1 mM EGTA, 5 mM β-glycerophosphate, 5% glycerol (10× stock, KB002A) and 0.2 mM DTT (DS001A). 5 μL of each enzyme were pre-incubated in a Corning (#3574) 384-well, white, non-binding surface microtiter plate (Corning, NY) for 30 min. at 27° C. with a 0.5 μL volume of 50% DMSO and serially diluted compounds prepared in 50% DMSO. Kinase reactions were started with the addition of 45 μL of the ATP/Tyr-Sox peptide substrate mix and monitored every 30-90 seconds for 60 minutes at λex360/λem485 in a Synergy^4 plate reader from BioTek (Winooski, Vt.). At the conclusion of each assay, progress curves from each well were examined for linear reaction kinetics and fit statistics (R^2, 95% confidence interval, absolute sum of squares). Initial velocity (0 minutes to ˜30 minutes) from each reaction was determined from the slope of a plot of relative fluorescence units vs time (minutes) and then plotted against inhibitor concentration to estimate IC50 from log [Inhibitor] vs Response, Variable Slope model in GraphPad Prism from GraphPad Software (San Diego, Calif.).
The EGFR-WT- and EGFR T790M/L858R-modified optimized reagent conditions are: • [EGFR-WT]=5 nM, [ATP]=[…], [Y12-Sox]=[…]; and [EGFR-T790M/L858R]=3 nM, [ATP]=[…], [Y12-Sox]=[…].

A further test addresses BTK (Homo sapiens, UniProt Q06187). The test can be described thus: Omnia assay for potency against BTK. It is filed as biochemical. The conditions noted are these: read-out: BTK Inhibition. In a few lines:
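BTK (5 nM) was pre-incubated 30 min at 27° C with serially diluted compounds in Tris pH 7.5/MgCl2 buffer, then started with […] and Y5-Sox peptide 10 mM (ATP KMapp ~36 mM). Fluorescence (ex360/em485) was read continuously over 60 min. IC50 came from initial velocities using a variable-slope fit.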

In another test the target is ErbB4 (Homo sapiens, UniProt Q15303). Briefly: Z'-LYTE biochemical assay, ErbB4 kinase inhibition. The settings on record: @ 1 μM. The protocol: (§3) Compounds of the present invention were assayed as inhibitors of one or more of ErbB1, ErbB2, and/or ErbB4 in a manner substantially similar to the method described by Invitrogen Corp (Invitrogen Corporation, 1600 Faraday Avenue, Carlsbad, Calif., CA; http://www.invitrogen.com/downloads/Z-LYTE_Brochure—1205.pdf) using the Z′-LYTE™ biochemical assay procedure or similar biochemical assay. The Z′-LYTE™ biochemical assay employs a fluorescence-based, coupled-enzyme format and is based on the differential sensitivity of phosphorylated and non-phosphorylated peptides to proteolytic cleavage.
ErbB4, sequence (Q15303 26-1308): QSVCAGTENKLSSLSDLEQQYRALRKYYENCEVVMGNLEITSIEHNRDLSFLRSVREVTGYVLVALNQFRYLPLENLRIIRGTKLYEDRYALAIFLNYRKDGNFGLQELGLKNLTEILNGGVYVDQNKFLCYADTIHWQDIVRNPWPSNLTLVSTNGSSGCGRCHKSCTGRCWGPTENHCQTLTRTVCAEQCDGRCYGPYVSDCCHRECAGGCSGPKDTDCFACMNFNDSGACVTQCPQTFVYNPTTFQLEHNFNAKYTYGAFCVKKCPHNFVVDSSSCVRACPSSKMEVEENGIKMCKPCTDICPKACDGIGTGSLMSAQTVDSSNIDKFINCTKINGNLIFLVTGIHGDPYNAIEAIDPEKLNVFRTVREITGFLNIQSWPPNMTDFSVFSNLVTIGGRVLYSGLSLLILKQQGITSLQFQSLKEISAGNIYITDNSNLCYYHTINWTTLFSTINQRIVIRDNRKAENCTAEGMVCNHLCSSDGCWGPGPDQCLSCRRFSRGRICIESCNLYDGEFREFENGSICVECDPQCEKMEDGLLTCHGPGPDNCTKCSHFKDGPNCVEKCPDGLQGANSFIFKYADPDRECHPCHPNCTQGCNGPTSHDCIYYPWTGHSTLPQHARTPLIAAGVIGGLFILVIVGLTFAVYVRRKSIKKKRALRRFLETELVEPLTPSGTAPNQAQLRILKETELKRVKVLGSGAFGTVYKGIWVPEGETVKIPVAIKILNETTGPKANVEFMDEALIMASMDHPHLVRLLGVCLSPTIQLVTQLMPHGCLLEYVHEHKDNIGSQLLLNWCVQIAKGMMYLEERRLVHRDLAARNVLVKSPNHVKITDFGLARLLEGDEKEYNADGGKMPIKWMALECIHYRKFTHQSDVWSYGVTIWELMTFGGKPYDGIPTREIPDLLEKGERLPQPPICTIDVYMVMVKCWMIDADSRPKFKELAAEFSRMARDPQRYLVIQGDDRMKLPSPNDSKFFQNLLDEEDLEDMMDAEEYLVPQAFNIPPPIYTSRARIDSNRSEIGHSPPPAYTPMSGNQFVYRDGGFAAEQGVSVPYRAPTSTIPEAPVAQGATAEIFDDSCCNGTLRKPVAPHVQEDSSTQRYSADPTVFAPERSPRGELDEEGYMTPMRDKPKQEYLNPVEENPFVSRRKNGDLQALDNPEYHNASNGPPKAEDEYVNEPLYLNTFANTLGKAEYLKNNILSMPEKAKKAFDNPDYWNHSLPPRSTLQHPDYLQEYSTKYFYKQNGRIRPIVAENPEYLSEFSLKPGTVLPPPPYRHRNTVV

For another test, the target named is ErbB1 (Homo sapiens, UniProt P00533). Briefly: Z'-LYTE biochemical assay, ErbB1 kinase inhibition. The protocol:
as §3

Another test addresses T3, EGFR (WT) (Homo sapiens, UniProt P00533).
T3 construct: purchased Invitrogen PV3872
Briefly: Omnia continuous-read kinase assay, EGFR (WT). It is filed as biochemical. The conditions noted are these: read-out: EGFR inhibtion. In a few lines:
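Enzyme pre-incubated 30 min at 27 °C with compound, then ATP/Y12-Sox peptide added; fluorescence (ex360/em485) read continuously 60 min in 20 mM Tris pH 7.5, 5 mM MgCl2, 0.2 mM DTT. WT: 5 nM enzyme, […]; T790M/L858R: 3 nM enzyme, […]. IC50 from initial velocities, variable-slope fit.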

The target of another test is ErbB2 (Homo sapiens, UniProt P04626). Briefly: Z'-LYTE biochemical assay, ErbB2 kinase inhibition. The conditions noted are these: @ 1 μM. As to the method:
as §3

Test [1] deals with BTK signaling in Ramos cells. The test can be described thus: BTK Ramos cellular assay (PLCγ2 phosphorylation). It counts as cell-based. The conditions noted are these: Homo sapiens; for IC50: Ramos cells, PLCγ2 phosphorylation, read-out: BTK Inhibition. The protocol:
Compounds 1-13 and (I-52) were assayed in Ramos human Burkitt lymphoma cells. Ramos cells were grown in suspension in T225 flasks, spun down, resuspended in 50 mls serum-free media and incubated for 1 hour. Compound was added to Ramos cells in serum free media to a final concentration of 1, 0.1, 0.01, or 0.001 μM. Ramos cells were incubated with compound for 1 hour, washed again and resuspended in 100 ul serum-free media. Cells were then stimulated with 1 μg of goat F(ab′)2 Anti-Human IgM and incubated on ice for 10 minutes to activate B cell receptor signaling pathways. After 10 minutes, the cells were washed once with PBS and then lysed on ice with Invitrogen Cell Extraction buffer. 16 μg total protein from lysates was loaded on gels and blots were probed for phosphorylation of the BTK substrate PLCγ2. […] Additional dose response inhibition of BTK signaling with I-13 is depicted in FIG. 9.

The target in a further test is T4, ITK (Homo sapiens, UniProt Q08881).
T4 sequence (Q08881 1-620): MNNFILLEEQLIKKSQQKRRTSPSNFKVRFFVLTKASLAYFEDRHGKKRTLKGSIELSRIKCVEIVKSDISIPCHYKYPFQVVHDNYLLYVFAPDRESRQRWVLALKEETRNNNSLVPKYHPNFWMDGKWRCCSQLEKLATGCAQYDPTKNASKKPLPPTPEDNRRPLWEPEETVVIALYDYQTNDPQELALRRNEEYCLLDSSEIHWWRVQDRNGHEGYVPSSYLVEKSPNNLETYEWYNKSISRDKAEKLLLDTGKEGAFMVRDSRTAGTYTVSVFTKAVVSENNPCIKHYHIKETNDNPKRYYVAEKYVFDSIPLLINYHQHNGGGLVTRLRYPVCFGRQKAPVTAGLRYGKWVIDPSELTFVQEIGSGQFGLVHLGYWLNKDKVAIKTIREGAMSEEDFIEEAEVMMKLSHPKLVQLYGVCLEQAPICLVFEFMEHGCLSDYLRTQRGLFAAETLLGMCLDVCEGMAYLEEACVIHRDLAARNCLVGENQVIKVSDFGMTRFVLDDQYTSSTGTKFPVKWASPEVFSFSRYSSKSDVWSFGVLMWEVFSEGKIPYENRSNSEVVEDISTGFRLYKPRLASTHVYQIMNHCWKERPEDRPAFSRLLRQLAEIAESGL
Briefly: Omnia assay for potency against ITK. It counts as biochemical. The settings on record: read-out: ITK inhibition.
Source text: as §1, §2
This example describes continuous-read kinase assays to measure inherent potency of compound against active forms of ITK enzymes as described in Example 10 above except that the modified ITK-optimized reagent conditions are: • [ITK]=10 nM, [ATP]=25 μM, [Y6-Sox]=10 μM (ATP KMapp=33 μM).

T3 sequence (P00533 25-1210): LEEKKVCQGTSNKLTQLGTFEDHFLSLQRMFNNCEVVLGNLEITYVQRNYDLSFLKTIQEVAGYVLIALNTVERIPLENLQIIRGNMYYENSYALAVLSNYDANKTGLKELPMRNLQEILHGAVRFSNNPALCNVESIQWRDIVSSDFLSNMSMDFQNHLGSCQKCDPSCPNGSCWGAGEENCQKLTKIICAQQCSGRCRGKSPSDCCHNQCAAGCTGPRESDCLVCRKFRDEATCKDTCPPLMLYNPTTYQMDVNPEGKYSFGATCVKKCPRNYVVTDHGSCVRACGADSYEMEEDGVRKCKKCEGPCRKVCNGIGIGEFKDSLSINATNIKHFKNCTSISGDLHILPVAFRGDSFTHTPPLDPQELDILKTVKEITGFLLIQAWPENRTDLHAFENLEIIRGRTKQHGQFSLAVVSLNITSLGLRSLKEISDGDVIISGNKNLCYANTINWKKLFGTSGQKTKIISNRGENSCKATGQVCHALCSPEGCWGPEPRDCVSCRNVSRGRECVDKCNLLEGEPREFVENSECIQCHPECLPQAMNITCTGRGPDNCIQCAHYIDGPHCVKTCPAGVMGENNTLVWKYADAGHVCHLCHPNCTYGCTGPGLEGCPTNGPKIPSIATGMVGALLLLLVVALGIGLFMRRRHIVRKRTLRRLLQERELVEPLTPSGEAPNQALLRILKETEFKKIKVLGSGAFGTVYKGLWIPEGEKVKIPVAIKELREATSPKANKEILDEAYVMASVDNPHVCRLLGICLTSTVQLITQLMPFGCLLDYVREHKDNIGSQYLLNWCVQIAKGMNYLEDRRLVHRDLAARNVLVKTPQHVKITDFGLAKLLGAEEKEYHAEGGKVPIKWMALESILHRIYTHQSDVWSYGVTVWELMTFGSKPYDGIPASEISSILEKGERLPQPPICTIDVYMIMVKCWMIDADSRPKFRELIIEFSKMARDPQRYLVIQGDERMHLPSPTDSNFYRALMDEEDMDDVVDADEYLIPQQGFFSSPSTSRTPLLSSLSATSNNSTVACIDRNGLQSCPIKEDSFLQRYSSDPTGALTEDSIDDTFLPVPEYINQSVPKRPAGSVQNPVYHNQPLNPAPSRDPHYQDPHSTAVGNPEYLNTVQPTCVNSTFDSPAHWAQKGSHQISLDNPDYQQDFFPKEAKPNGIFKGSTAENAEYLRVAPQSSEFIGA
BTK, sequence (Q06187 whole entry): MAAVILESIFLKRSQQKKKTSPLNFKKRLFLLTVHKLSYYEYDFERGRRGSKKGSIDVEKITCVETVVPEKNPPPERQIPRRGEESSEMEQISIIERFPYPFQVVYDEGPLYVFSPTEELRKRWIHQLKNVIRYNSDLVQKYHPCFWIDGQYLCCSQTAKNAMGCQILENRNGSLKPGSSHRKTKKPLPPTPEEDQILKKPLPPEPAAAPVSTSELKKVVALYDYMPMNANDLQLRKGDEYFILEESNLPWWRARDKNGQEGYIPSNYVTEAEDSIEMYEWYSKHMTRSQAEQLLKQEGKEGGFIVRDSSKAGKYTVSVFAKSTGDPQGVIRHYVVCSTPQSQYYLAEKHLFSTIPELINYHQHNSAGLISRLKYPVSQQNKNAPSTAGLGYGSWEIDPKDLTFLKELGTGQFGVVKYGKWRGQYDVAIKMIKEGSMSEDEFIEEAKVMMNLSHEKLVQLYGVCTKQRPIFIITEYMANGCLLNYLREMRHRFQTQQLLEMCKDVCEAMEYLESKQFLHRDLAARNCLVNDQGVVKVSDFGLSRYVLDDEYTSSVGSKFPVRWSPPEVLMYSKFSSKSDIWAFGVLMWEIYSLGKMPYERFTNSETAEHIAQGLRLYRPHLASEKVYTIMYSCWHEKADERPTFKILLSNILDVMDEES
T2 sequence (P00533 25-1210 T790M/L858R): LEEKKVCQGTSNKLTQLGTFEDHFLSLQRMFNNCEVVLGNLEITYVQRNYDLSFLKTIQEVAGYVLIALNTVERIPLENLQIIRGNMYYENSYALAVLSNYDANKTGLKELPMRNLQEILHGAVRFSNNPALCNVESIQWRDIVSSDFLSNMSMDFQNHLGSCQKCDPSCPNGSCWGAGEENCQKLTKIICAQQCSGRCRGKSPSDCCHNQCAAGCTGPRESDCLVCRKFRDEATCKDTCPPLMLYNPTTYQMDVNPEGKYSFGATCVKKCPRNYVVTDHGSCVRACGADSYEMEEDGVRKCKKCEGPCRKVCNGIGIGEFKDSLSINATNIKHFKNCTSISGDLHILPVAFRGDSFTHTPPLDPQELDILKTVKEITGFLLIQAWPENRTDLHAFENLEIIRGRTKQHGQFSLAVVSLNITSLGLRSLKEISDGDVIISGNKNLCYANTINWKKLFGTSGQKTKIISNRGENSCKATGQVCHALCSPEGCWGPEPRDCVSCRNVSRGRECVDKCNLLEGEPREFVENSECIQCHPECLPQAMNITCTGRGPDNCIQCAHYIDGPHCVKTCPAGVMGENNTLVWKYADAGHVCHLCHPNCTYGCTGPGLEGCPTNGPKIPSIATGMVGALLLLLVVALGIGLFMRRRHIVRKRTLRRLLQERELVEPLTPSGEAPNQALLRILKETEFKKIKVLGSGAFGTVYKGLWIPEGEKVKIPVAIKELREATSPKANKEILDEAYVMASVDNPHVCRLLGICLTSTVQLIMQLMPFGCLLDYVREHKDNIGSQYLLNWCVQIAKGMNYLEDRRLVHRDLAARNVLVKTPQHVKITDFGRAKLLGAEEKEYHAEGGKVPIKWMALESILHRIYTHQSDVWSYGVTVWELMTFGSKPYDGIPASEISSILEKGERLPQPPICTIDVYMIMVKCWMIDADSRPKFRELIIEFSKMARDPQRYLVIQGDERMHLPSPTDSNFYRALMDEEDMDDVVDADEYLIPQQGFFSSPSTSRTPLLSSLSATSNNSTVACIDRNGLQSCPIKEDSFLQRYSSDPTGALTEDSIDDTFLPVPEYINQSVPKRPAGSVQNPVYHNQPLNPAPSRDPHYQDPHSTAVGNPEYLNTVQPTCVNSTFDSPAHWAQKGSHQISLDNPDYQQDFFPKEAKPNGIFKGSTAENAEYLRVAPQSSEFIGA

In the case of `C/C=C/C(=O)Nc1cccc(Nc2cc(Nc3cccc(Br)c3)ncn2)c1` [I-8, (E)-N-(3-[6-(3-bromophenylamino)-pyrimidin-4-ylamino]-phenyl)-2-butenamide], the IC50 at JAK3 was 1000 to 10000 nM; at EGFR (T790M/L858R) it was 1000 to 10000 nM; on BTK, at least 10000 nM; on EGFR (WT), at most 10 nM. Further, testing at 1 µM against ErbB4 gave an inhibition of 57%. Also, the inhibition (in general, the share of the control response that was lost under treatment) at 0.01 µM on ErbB1 (@ 10 nM) turned out to be 83%.

Take `C=CC(=O)Nc1cccc(Nc2cc(Oc3cccc(C(F)(F)F)c3)ncn2)c1` [I-9]: the IC50 at JAK3 was 100 to 1000 nM; on EGFR (T790M/L858R), 100 to 1000 nM; on BTK, 100 to 1000 nM; at EGFR (WT) it was at most 10 nM. For the same compound, the inhibition at 1 µM at ErbB4 stood at 75%; at ErbB1 (@ 1 μM) it was 100%.

In the case of `CN(C)C/C=C/C(=O)Nc1cccc(Nc2cc(Nc3ccc(F)c(Cl)c3)ncn2)c1` [I-18, (E)-N-{3-[6-(3-chloro-4-fluorophenylamino)-pyrimidin-4-ylamino]phenyl}-4-dimethylamino-2-butenamide], the IC50 at JAK3 is 10 to 100 nM; on EGFR (T790M/L858R), at most 10 nM; on BTK, 10 to 100 nM; on EGFR (WT), at most 10 nM. Moreover, the inhibition at 1 µM against ErbB2 came out at 91%; against ErbB4, 94%.

As for `CN(C)C/C=C/C(=O)Nc1cccc(Nc2cc(Nc3ccc(F)c(Cl)c3)ncn2)n1` [I-52], the IC50 on JAK3, on BTK and on EGFR (WT) was at most 10 nM each time. Further, in test [1] (Ramos, at 1 μM, 1 hour), the inhibition at 1 µM was 50%.

For the compound `C=CC(=O)Nc1cccc(Nc2cc(Oc3ccc4c(c3)OCCO4)ncn2)n1` [I-95, N-(6-(6-(2,3-dihydrobenzo[b][1,4]dioxin-6-yloxy)pyrimidin-4-ylamino)pyridin-2-yl)acrylamide], the IC50 is at least 10000 nM on ITK, at most 10 nM on BTK, at most 10 nM in [1] and at most 10 nM at EGFR (WT).

Regarding `COc1ccc(NC(=O)/C=C/CN(C)CCCCNC(=O)CCCC(=O)NCCCOCCOCCOCCCNC(=O)CCCC[C@@H]2SC[C@@H]3NC(=O)N[C@@H]32)cc1Nc1cc(Nc2ccc(F)c(Cl)c2)ncn1` [I-99, N^1-(4-(((E)-4-(3-(6-(3-chloro-4-fluorophenylamino)pyrimidin-4-ylamino)-4-methoxyphenylamino)-4-oxobut-2-enyl)(methyl)amino)butyl)-N^5-(15-oxo-19-((3aS,4S,6aR)-2-oxohexahydro-1H-thieno[3,4-d]imidazol-4-yl)-4,7,10-trioxa-14-azanonadecyl)glutaramide], the IC50 (on BTK; in test [1]; on EGFR (WT)) was at most 10 nM each time.

Turning to `C=CC(=O)Nc1cc(Nc2cc(Oc3ccc(Oc4ccccc4)cc3)ncn2)cc(C(=O)N2CCOCC2)c1` [I-100, N-(3-(morpholine-4-carbonyl)-5-(6-(4-phenoxy)pyrimidin-4-ylamino)phenyl)acrylamide], the IC50 at ITK is at least 10000 nM; on BTK, at most 10 nM; in test [1] it was 10 to 100 nM; at EGFR (WT), at most 10 nM.
